Test results: patent US20220184037A1, “PHARMACEUTICAL AGENTS TARGETING CANCER STEM CELLS” (THE JOHNS HOPKINS UNIVERSITY, priority 2020, published 2022)

Experiments:
Type in all cases: cell-based, human
YAP1 = experiment: Western blotting of YAP1 expression in bladder cancer cells
Method: (§1) Whole cell lysates were extracted using RIPA buffer (Thermo Scientific) supplemented with 10 μL/mL Halt™ Protease Inhibitor Cocktail Kit (Life Technologies) and 30 μL/mL Halt™ Phosphatase Inhibitor Cocktail Kit (Life Technologies). The protein concentrations were determined using a Pierce™ BCA Protein Assay Kit (Life Technologies), and the protein were separated on. NuPAGE 4-12% Bis-Tris Gel (Life Technologies) according to the manufacturer's protocol. COX2 (D5H5), NANOG (D73G4), OCT4 (D7O5Z), CD133 (A3G6K), Snail (C15D3), ZEBI (D80D3), Vimentin (D21H3), CDH2 (D4R1H), CDH1 (24E10), p-EGFR (D7A5), EGFR (D38B1), p-AKT (D9E), AKT (cat #, 9272), p-ERK (D13.14.4E), ERK (137F5), p-YAP1 (D9W2I), p-Src (cat #, 2101), Src (36D10), DNMT1 (D63A6), DNMT3A (D23G1), and DNMT3B (D7070) antibodies were obtained from Cell Signaling Technology (Danvers, Mass., USA), except for SOX2 (EPR3131; Abeam, Cambridge, USA), YAP1 (ab52771; Abeam), CD24 (cat #, AF5247-SP; R&D Systems, Minneapolis USA) and β-actin (A2228; Sigma-Aldrich). Secondary horseradish peroxidase (HRP)-conjugated antibodies were obtained from Cell Signaling Technology, and chemiluminescent detection of HRP-labeled antibodies was performed using Amersham ECL Prime Western Blotting Detection Reagent (GE Healthcare, Piscataway, USA). As loading control, β-actin was used.

[1] = test system: bladder cancer cells (urothelial CSCs); experiment: Sphere formation assay
Method: Sphere formation was induced by culturing cells (2×10^4/well) in […] F12 50/50 Mix (Mediatech) supplemented with B-27 (Life Technologies), 20 ng/mL FGF-basic (Peprotech), 20 ng/mL EGF (Peprotech). Cell culture was performed in ultra-low attachment 6 well plates (Corning, Lowell, USA) for 10 days. The medium was replaced every other day. Sphere formation was evaluated using the inverted phase-contrast microscope, and single sphere with a diameter larger than 100 gm was counted using NIS-Elements Microscope Imaging Software. To redifferentiate spheres, spheres were plated in standard growth medium with 10% FBS in dishes supporting cell attachment, and incubated for 7 days. For self-renewal assay, primary spheres were collected by gentle centrifugation (5 min at 400×g), dissociated with Stempro Accutase Cell Dissociation Reagent (Life Technologies), and mechanically disrupted with a pipette. The cell suspension was sieved through 40 μm cell strainer cap filter to achieve a single-cell suspension, and then equal numbers of alive cells were plated in ultralow attachment plates to generate the second spheres. Again, spheres were counted on day 14 and digested to generate the third Spheres. All the experiments were performed in triplicate and repeated at least three times.

SOX2 = experiment: Western blotting / flow cytometry of SOX2 expression in bladder cancer cells
Method: as §1
For extracellular staining, cells (1×10^6/100 μL stain buffer) were incubated with PE-Vio770-conjugated anti-human CD133 (293C3; Miltenyi Biotec, Auburn, USA) or PE-conjugated anti-human CD24 antibody (cat #, 560991; BD Biosciences) for 30 min at 4° C. in dark. PE-Vio770-conjugated anti-IgG1κ Isotype (cat #, 130-098-563; Miltenyi Biotec) and PE-conjugated IgG2a, κ Isotype (cat #, 555574; BD Biosciences) were used as control for CD133 and CD24 staining, respectively. Staining for intracellular SOX2 was carried out using the BD Cytofix/Cytopem Fixation/Permeabilization Kit (BD Biosciences) according to manufacturer's protocol. The cells were incubated with Alexa Fluor 647-conjugated anti-SOX2 antibody (cat #, 560302; BD Biosciences) for 40 min at 4° C. in dark. Alexa Fluor 647-conjugated anti-IgG2a, κ Isotype (cat #, 558053; BD Biosciences) was used as control. Data were acquired on a BD FACSCalibur flow cytometer (BD Biosciences) using BD CellQuest Pro software (BD Biosciences) and analyzed with FlowJo software v10.1 (Tree Star, Ashland, USA).

[2] = test system: basal-type bladder cancer cell lines; experiment: MTT assay, sensitivity to erlotinib (IC50); conditions: 72 hours
Method: Embryonic kidney cell line 293, SV-40 immortalized normal human urothelial cell line (HUC1), and bladder cancer cell lines 5637, FIT-1376, J82, SCaBER, RT-4, T24, and UM-UC3 were obtained from American. Type Culture Collection (ATCC; Manassas, Va., USA). Mediums were purchased from Mediatech (Manassas, USA) and supplemented with 10% FBS (Hyclone, Logan, USA) under a 5% CO2 atmosphere at 95% relative humidity. HUC-1, T24, and 5637 cells were grown in F-12K, McCoy's 5A, and RPMI 1640 medium, respectively, and all other cells were grown Dulbecco's modified Eagle medium (DMEM). BFTC 905 and BFTC 909 cell lines were established from arsenic-exposed urothelial carcinoma subjects (9) and obtained from the German Collection of Microorganisms and Cell Cultures (Braunschweig, Germany). Re-authentification of cells was performed using PowerPlex 16 HS for short tandem repeats analysis at Genetic resource core facility, the Johns Hopkins University School of Medicine, Institute of Genetic Medicine, and all cell lines have been confirmed as authentic. To prepare in vitro arsenic model, we chronically exposed HUC1 cells to 1 μM arsenic trioxide, as described previously (10) and arsenic-exposed (As) cells and passage-matched arsenic un-exposed control (UE) cells were stock for each months until 12 months. […]
The cell proliferative and viability activity were measured using the 3-(4,5-dimethyl thiazol-2-yl)-2,5-diphenyltetrazolium bromide (MTT) Proliferation Assay Kit (ATCC; Manassas, Va., USA) according to the manufacturer's protocol. […] Spectrophotometric readings (570 nm-650 nm) were obtained on a Spectra Max 250 96-well plate reader (Molecular devices, Sunnyvale, USA). […] Cell viability was expressed as the ratio of absorbance values of the treated cells related to the untreated control cells considered as 1.0. The half maximal (50%) inhibitory concentration (IC50) value of drug was calculated by treatment with the various concentration for 72 hours using MTT assay. […]

[3] = basal-type cells, 1 μM erlotinib

Row | SMILES | induction of YAP1 expression (YAP1; COX2 inhibitor added to erlotinib) | sphere-forming ability / sphere formation ([1]; COX2 inhibitor or EP4 antagonist alone) | erlotinib-increased sphere formation ([1]; basal-type cells, COX2 inhibitor added to erlotinib (10 μM celecoxib, 72 hours)) | SOX2 expression (SOX2; COX2 inhibitor or EP4 antagonist alone (FIG. 2A-B, S7)) | erlotinib-increased SOX2 expression (SOX2; basal-type cells, COX2 inhibitor added to erlotinib) | YAP1 expression (YAP1; [3]) | levels of YAP1 expression (YAP1; non-basal-type cells, erlotinib) | number of spheres ([1]; basal-type cells, 1 μM erlotinib for 72 hours) | level of SOX2 expression over time (SOX2; [3]) | sensitivity to the EGFR inhibitor erlotinib [2]
1 | Cc1ccc(-c2cc(C(F)(F)F)nn2-c2ccc(S(N)(=O)=O)cc2)cc1 [celecoxib, Celecoxib] | no longer able to induce YAP1 expression | repressed | impaired | SOX2 downregulation | impaired |  |  |  |  | 
2 | C#Cc1cccc(Nc2ncnc3cc(OCCOC)c(OCCOC)cc23)c1 [erlotinib, Erlotinib] |  |  |  |  |  | continuously decreased YAP1 expression | did not affect | enriched number of spheres | decreased at 1 hour after treatment with erlotinib and then gradually increased | sensitive
